Reference: ChEMBL document CHEMBL4507269, “Data for DCP probe BAY-386” (2021)

Assays:
[1] = target: Mitogen-activated protein kinase kinase kinase kinase 1 (Homo sapiens) (UniProt Q92918); settings: Compound concentration 1000.0 nM
[2] = target: Myotonin-protein kinase (Homo sapiens) (UniProt Q09013); settings: Compound concentration 1000.0 nM
[3] = target: Non-receptor tyrosine-protein kinase TYK2 (Homo sapiens) (UniProt P29597); settings: Compound concentration 1000.0 nM
[4] = target: Serine/threonine-protein kinase Sgk1 (Homo sapiens) (UniProt O00141); settings: Compound concentration 1000.0 nM
[5] = target: Protein kinase C iota type (Homo sapiens) (UniProt P41743); settings: Compound concentration 1000.0 nM
[6] = test system: Receptor-type tyrosine-protein kinase FLT3 (Homo sapiens), P36888 [R834Q]; settings: Compound concentration 1000.0 nM
[7] = target: Proto-oncogene tyrosine-protein kinase receptor Ret (Homo sapiens) (UniProt P07949); settings: Compound concentration 1000.0 nM
[8] = target: Serine/threonine-protein kinase 16 (Homo sapiens) (UniProt O75716); settings: Compound concentration 1000.0 nM
[9] = target: Tyrosine-protein kinase BTK (Homo sapiens) (UniProt Q06187); settings: Compound concentration 1000.0 nM
[10] = target: Ribosomal protein S6 kinase alpha-2 (Homo sapiens) (UniProt Q15349); settings: Compound concentration 1000.0 nM
[11] = target: Ribosomal protein S6 kinase alpha-5 (Homo sapiens) (UniProt O75582); settings: Compound concentration 1000.0 nM
[12] = target: Tyrosine-protein kinase ITK/TSK (Homo sapiens) (UniProt Q08881); settings: Compound concentration 1000.0 nM
[13] = target: Myosin light chain kinase, smooth muscle (Homo sapiens) (UniProt Q15746); settings: Compound concentration 1000.0 nM
[14] = target: Casein kinase I isoform gamma-1 (Homo sapiens) (UniProt Q9HCP0); settings: Compound concentration 1000.0 nM
[15] = test system: Hepatocyte growth factor receptor (Homo sapiens), P08581 [M1250T]; settings: Compound concentration 1000.0 nM
[16] = target: Mitogen-activated protein kinase 11 (Homo sapiens) (UniProt Q15759); settings: Compound concentration 1000.0 nM
[17] = target: Eukaryotic translation initiation factor 2-alpha kinase 1 (Homo sapiens) (UniProt Q9BQI3); settings: Compound concentration 1000.0 nM
[18] = test system: Fibroblast growth factor receptor 3 (Homo sapiens), P22607 [G697C]; settings: Compound concentration 1000.0 nM
[19] = target: Dual specificity protein kinase CLK3 (Homo sapiens) (UniProt P49761); settings: Compound concentration 1000.0 nM
[20] = target: Ankyrin repeat and protein kinase domain-containing protein 1 (Homo sapiens) (UniProt Q8NFD2); settings: Compound concentration 1000.0 nM
[21] = target: Phosphatidylinositol 4,5-bisphosphate 3-kinase catalytic subunit alpha isoform (Homo sapiens) (UniProt P42336); settings: Compound concentration 1000.0 nM
[22] = test system: Phosphatidylinositol 4,5-bisphosphate 3-kinase catalytic subunit alpha isoform (Homo sapiens), P42336 [Q546K]; settings: Compound concentration 1000.0 nM
[23] = target: RAC-beta serine/threonine-protein kinase (Homo sapiens) (UniProt P31751); settings: Compound concentration 1000.0 nM
[24] = target: Dual specificity tyrosine-phosphorylation-regulated kinase 1A (Homo sapiens) (UniProt Q13627); settings: Compound concentration 1000.0 nM
[25] = test system: Phosphatidylinositol 4,5-bisphosphate 3-kinase catalytic subunit alpha isoform (Homo sapiens), P42336 [I800L]; settings: Compound concentration 1000.0 nM
[26] = target: Atypical kinase COQ8A, mitochondrial (Homo sapiens) (UniProt Q8NI60); settings: Compound concentration 1000.0 nM
[27] = test system: Tyrosine-protein kinase ABL1 (Homo sapiens), P00519 [H396P]; settings: Compound concentration 1000.0 nM
[28] = target: Non-receptor tyrosine-protein kinase TNK1 (Homo sapiens) (UniProt Q13470); settings: Compound concentration 1000.0 nM
[29] = target: Serine/threonine-protein kinase 33 (Homo sapiens) (UniProt Q9BYT3); settings: Compound concentration 1000.0 nM
[30] = target: Homeodomain-interacting protein kinase 1 (Homo sapiens) (UniProt Q86Z02); settings: Compound concentration 1000.0 nM
[31] = target: Cyclin-dependent kinase 13 (Homo sapiens) (UniProt Q14004); settings: Compound concentration 1000.0 nM
[32] = target: Serine/threonine-protein kinase MRCK beta (Homo sapiens) (UniProt Q9Y5S2); settings: Compound concentration 1000.0 nM
[33] = target: Substance-P receptor (Homo sapiens) (UniProt P25103); assay: NK1 (h) Eurofins-Cerep Cellular and Nuclear Receptor Functional Assays; settings: Compound concentration 10.0 uM
[34] = target: Ephrin type-B receptor 2 (Homo sapiens) (UniProt P29323); settings: Compound concentration 1000.0 nM
[35] = target: Serine/threonine-protein kinase N2 (Homo sapiens) (UniProt Q16513); settings: Compound concentration 1000.0 nM
[36] = target: Tyrosine-protein kinase ABL1 (Homo sapiens) (UniProt P00519); settings: Compound concentration 1000.0 nM
[37] = target: Receptor-interacting serine/threonine-protein kinase 2 (Homo sapiens) (UniProt O43353); settings: Compound concentration 1000.0 nM
[38] = target: RAF proto-oncogene serine/threonine-protein kinase (Homo sapiens) (UniProt P04049); settings: Compound concentration 1000.0 nM
[39] = target: Tyrosine-protein kinase Lyn (Homo sapiens) (UniProt P07948); settings: Compound concentration 1000.0 nM
[40] = target: Serine/threonine-protein kinase Nek4 (Homo sapiens) (UniProt P51957); settings: Compound concentration 1000.0 nM
[41] = target: Activated CDC42 kinase 1 (Homo sapiens) (UniProt Q07912); settings: Compound concentration 1000.0 nM
[42] = target: Beta-2 adrenergic receptor (Homo sapiens) (UniProt P07550); settings: Compound concentration 10.0 uM
[43] = test system: Proto-oncogene tyrosine-protein kinase receptor Ret (Homo sapiens), P07949 [V804M]; settings: Compound concentration 1000.0 nM
[44] = target: Myosin-IIIa (Homo sapiens) (UniProt Q8NEV4); settings: Compound concentration 1000.0 nM

Sequence of Substance-P receptor (Homo sapiens) (P25103 whole entry): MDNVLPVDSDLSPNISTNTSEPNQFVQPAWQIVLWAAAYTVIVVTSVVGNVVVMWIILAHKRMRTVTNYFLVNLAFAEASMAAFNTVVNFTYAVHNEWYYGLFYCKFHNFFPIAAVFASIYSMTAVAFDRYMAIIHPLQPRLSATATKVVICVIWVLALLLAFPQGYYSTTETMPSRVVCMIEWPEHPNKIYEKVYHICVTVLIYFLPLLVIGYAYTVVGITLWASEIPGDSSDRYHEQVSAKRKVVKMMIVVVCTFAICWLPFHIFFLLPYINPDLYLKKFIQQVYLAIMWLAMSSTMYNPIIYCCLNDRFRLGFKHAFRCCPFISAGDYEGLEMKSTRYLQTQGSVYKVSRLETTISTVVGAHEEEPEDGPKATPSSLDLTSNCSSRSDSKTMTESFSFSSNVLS
Sequence of Beta-2 adrenergic receptor (Homo sapiens) (P07550 whole entry, looked up): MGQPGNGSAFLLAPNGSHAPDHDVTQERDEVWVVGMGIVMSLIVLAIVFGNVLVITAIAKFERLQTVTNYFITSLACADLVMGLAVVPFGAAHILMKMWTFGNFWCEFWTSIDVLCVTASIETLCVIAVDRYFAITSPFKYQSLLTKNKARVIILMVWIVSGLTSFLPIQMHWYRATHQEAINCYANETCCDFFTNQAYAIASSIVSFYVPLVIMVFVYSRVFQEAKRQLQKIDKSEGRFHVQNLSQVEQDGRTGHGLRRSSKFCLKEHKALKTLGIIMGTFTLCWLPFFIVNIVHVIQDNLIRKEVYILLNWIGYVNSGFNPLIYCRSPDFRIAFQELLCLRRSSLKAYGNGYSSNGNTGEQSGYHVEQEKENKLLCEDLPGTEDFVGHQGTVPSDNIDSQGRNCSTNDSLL
Sequence of Activated CDC42 kinase 1 (Homo sapiens) (Q07912 whole entry, looked up): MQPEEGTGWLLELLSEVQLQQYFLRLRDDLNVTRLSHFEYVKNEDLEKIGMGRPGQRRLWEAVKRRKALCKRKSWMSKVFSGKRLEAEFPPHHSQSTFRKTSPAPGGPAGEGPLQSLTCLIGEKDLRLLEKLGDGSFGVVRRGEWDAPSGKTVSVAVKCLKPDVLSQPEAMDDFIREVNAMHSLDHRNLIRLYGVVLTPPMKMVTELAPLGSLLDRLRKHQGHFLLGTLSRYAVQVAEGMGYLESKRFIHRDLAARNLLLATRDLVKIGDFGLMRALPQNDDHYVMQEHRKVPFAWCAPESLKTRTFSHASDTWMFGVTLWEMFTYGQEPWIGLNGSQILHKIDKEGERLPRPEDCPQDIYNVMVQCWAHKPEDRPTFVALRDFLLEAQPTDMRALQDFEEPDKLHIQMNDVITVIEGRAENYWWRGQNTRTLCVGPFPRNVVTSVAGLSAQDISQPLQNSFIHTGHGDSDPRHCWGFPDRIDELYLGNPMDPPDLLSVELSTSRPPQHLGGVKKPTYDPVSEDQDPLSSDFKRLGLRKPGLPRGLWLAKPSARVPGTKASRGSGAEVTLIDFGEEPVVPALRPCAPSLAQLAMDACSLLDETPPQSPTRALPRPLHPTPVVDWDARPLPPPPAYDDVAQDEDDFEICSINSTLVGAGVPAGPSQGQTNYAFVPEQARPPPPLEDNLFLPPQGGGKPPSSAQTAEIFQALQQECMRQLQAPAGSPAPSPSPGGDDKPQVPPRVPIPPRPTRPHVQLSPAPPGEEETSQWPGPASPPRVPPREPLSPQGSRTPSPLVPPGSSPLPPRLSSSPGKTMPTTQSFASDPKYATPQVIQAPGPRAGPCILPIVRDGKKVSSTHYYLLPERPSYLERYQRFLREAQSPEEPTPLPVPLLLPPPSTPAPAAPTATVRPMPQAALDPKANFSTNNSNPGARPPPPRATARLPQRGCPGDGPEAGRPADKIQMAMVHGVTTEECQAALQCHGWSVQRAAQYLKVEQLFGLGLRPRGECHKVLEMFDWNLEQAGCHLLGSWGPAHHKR
Sequence of Serine/threonine-protein kinase N2 (Homo sapiens) (Q16513 whole entry, looked up): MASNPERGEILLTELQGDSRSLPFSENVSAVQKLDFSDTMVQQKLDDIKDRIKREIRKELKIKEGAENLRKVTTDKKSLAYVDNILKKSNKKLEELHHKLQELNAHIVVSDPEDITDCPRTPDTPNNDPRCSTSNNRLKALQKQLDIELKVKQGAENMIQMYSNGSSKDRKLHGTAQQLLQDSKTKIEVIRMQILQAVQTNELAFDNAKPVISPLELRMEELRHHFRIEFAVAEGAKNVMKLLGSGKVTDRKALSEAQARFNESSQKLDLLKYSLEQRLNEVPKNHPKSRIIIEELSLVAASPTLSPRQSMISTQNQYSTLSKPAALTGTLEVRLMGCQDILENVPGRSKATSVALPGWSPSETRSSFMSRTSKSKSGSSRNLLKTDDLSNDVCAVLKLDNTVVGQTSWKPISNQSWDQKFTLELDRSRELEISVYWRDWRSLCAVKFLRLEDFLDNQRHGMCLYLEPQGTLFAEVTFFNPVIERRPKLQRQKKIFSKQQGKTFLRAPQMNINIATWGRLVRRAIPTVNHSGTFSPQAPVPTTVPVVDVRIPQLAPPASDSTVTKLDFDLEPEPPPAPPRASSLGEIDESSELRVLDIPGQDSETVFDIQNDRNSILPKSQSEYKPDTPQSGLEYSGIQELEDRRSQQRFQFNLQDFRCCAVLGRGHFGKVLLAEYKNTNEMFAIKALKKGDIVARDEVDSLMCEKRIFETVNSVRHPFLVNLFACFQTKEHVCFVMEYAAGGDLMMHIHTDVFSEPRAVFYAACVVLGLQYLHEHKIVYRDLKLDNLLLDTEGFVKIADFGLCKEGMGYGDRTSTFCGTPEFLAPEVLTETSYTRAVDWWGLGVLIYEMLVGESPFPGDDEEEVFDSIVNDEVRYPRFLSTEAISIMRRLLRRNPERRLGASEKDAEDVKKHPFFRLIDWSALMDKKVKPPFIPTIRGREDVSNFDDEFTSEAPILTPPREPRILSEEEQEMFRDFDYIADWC
Sequence of Non-receptor tyrosine-protein kinase TNK1 (Homo sapiens) (Q13470 whole entry): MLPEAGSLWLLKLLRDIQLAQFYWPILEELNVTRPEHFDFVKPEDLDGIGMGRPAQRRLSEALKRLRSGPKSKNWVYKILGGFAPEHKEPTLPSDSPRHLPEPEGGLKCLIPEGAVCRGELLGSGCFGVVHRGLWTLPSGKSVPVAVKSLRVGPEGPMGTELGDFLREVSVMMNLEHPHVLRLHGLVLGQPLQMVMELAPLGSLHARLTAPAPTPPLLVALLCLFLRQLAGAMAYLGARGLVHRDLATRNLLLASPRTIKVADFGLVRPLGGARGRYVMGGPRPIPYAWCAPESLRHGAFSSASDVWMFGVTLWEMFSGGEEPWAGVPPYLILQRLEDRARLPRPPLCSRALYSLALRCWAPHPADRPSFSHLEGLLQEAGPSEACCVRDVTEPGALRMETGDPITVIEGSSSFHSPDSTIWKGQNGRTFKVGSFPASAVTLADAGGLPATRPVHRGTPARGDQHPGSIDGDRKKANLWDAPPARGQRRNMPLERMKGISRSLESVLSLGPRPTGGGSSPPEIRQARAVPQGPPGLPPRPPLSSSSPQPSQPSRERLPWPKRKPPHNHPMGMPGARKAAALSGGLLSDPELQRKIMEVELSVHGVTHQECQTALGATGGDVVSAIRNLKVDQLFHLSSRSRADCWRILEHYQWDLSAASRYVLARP
Sequence of Protein kinase C iota type (Homo sapiens) (P41743 whole entry): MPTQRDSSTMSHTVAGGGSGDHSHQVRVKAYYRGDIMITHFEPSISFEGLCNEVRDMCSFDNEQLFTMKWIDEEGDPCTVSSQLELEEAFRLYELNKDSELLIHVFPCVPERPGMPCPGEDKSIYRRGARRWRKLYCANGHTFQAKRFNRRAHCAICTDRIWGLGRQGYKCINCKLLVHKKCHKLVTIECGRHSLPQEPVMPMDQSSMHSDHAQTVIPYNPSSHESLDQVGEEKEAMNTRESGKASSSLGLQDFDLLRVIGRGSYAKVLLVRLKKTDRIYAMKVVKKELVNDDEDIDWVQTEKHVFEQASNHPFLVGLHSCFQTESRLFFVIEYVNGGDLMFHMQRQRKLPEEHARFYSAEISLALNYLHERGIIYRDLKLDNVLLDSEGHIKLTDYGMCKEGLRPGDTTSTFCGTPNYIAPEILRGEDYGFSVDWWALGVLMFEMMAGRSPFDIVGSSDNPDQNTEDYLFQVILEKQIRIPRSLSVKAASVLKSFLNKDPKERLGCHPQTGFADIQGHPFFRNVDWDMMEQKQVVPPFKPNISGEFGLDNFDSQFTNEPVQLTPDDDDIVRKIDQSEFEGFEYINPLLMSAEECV
Sequence of Casein kinase I isoform gamma-1 (Homo sapiens) (Q9HCP0 whole entry, looked up, canonical isoform): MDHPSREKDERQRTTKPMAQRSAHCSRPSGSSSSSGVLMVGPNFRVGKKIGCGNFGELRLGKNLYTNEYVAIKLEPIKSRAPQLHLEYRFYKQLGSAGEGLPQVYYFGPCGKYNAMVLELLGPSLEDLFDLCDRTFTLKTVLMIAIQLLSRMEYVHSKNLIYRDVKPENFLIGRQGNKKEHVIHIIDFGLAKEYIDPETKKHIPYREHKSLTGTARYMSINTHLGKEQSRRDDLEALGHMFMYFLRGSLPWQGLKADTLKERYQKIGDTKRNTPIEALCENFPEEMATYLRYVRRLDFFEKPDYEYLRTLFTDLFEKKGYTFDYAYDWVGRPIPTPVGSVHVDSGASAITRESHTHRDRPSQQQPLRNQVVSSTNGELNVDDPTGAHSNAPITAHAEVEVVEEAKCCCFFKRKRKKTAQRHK
Sequence of Dual specificity protein kinase CLK3 (Homo sapiens) (P49761 whole entry, looked up, the tested form may be a part): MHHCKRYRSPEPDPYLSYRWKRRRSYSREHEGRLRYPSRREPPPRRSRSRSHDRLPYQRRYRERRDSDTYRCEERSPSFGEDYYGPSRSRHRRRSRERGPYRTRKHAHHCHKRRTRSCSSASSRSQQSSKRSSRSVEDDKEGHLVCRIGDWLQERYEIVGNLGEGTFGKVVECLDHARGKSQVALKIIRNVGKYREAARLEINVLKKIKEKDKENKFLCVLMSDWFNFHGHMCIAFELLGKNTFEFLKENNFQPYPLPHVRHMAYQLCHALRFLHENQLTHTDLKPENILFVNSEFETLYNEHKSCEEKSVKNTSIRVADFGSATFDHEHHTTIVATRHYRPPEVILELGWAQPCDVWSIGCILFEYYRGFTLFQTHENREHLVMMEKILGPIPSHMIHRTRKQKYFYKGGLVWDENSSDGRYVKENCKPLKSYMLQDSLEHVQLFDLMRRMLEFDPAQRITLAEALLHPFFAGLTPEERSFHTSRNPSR

SMILES: O=C(N1CCS(=O)(=O)CC1)N1C[C@H](c2ccc(OC(F)(F)F)cc2)C[C@H](c2nc(C3CC3)no2)C1 [BAY-386]
- residual activity [1]: 100%
- residual activity [2]: 100%
- residual activity [3]: 94%
- residual activity [4]: 91%
- residual activity [5]: 100%
- residual activity [6]: 100%
- residual activity [7]: 93%
- residual activity [8]: 100%
- residual activity [9]: 100%
- residual activity [10]: 100%
- residual activity [11]: 100%
- residual activity [12]: 100%
- residual activity [13]: 100%
- residual activity [14]: 100%
- residual activity [15]: 100%
- residual activity [16]: 100%
- residual activity [17]: 90%
- residual activity [18]: 100%
- residual activity [19]: 100%
- residual activity [20]: 100%
- residual activity [21]: 100%
- residual activity [22]: 83%
- residual activity [23]: 90%
- residual activity [24]: 100%
- residual activity [25]: 68%
- residual activity [26]: 100%
- residual activity [27]: 100%
- residual activity [28]: 100%
- residual activity [29]: 99%
- residual activity [30]: 100%
- residual activity [31]: 100%
- residual activity [32]: 100%
- % Inhibition of Control Agonist Response (Mean n=2) [33]: 23.3%
- % of Control Agonist Response (Mean n=2) [33]: 1.8%
- residual activity [34]: 100%
- residual activity [35]: 100%
- residual activity [36]: 84%
- residual activity [37]: 90%
- residual activity [38]: 100%
- residual activity [39]: 85%
- residual activity [40]: 100%
- residual activity [41]: 97%
- inhibition [42]: 11.8%
- residual activity [43]: 100%
- residual activity [44]: 100%

SMILES: Cc1noc([C@H]2C[C@@H](c3ccc(C(F)(F)F)cc3)CN(C(=O)N3CCS(=O)(=O)C3)C2)n1 [BAY-448]
- residual activity [1]: 100%
- residual activity [2]: 100%
- residual activity [3]: 100%
- residual activity [4]: 100%
- residual activity [5]: 100%
- residual activity [6]: 91%
- residual activity [7]: 100%
- residual activity [8]: 100%
- residual activity [9]: 96%
- residual activity [10]: 92%
- residual activity [11]: 100%
- residual activity [12]: 100%
- residual activity [13]: 87%
- residual activity [14]: 100%
- residual activity [15]: 100%
- residual activity [16]: 100%
- residual activity [17]: 100%
- residual activity [18]: 84%
- residual activity [19]: 100%
- residual activity [20]: 100%
- residual activity [21]: 99%
- residual activity [22]: 100%
- residual activity [23]: 96%
- residual activity [24]: 100%
- residual activity [25]: 100%
- residual activity [26]: 91%
- residual activity [27]: 100%
- residual activity [28]: 100%
- residual activity [29]: 100%
- residual activity [30]: 82%
- residual activity [31]: 96%
- residual activity [32]: 100%
- % Inhibition of Control Agonist Response (Mean n=2) [33]: 2.1%
- % of Control Agonist Response (Mean n=2) [33]: 0.3%
- residual activity [34]: 100%
- residual activity [35]: 100%
- residual activity [36]: 71%
- residual activity [37]: 100%
- residual activity [38]: 100%
- residual activity [39]: 100%
- residual activity [40]: 82%
- residual activity [41]: 100%
- inhibition [42]: 24%
- residual activity [43]: 100%
- residual activity [44]: 100%
